Measurements taken from paper PMC1950704 (Respiratory Research, 2007).
Entries after “also recorded” stand apart in the source; their conditions may differ. Read-outs that look alike come from different tables or passages of the source.

Legend:
[1] = Stability in fresh human lung tissue in vitro, with and without esterase inhibitor dichlorvos; assay type: in vitro ADME; conditions: 37°C
Description: Incubations were performed in the presence and absence of dichlorvos (1 mg/mL). Over 24 hours, samples of 1.0 mL tissue-free supernatant were taken and immediately stored at -20°C until analysis. The incubation medium was replenished by buffer which was pre-temperated to 37°C. In case of incubations with dichlorvos the medium used for replenishment contained the esterase inhibitor.
(§1) Samples of 1.0 mL (tissue desorption/stability) or 2.0 mL (tissue adsorption) were mixed with 0.1 mL internal standard solution and extracted twice with 3 mL diethylether for 30 min, using a roller mixer, followed by centrifugation (20°C) for 5 min. The organic phase was separated and evaporated to dryness under a gentle stream of nitrogen at 25°C. The resulting residue was reconstituted in 0.2 mL mobile phase. […] Linearity was given from 10–500 ng/mL glucocorticoid, coefficients of correlation of the calibration curves were at least 0.99.
The HPLC system was a Waters HPLC (Milford, MA) consisting of a 1525 binary pump, an 717plus autosampler and 2487 dual wavelength absorbance detector set at the detection wavelength of 254 nm. Data collection and integration were accomplished using Breeze™ software version 3.2. Analysis was performed on a Symmetry C18 column (150 × 4.6 mm I.D., 5 μm particle size, Waters, MA). […] The lower limit of quantitation was 10 ng/mL for all glucocorticoids except ciclesonide (20 ng/mL).

[2] = biological target: T1, human lung glucocorticoid receptor (Homo sapiens, UniProt P04150); assay: Kinetic receptor binding experiments (association and dissociation kinetics) in human lung cytosol; set-up: we isolated human lung glucocorticoid receptors from human lung tissue; from tissue; host or cells: human lung tissue cytosol (105,000 x g supernatant); conditions: 20°C, mean and mean deviation of the mean, 3-7 experiments
T1 sequence (P04150 1-777): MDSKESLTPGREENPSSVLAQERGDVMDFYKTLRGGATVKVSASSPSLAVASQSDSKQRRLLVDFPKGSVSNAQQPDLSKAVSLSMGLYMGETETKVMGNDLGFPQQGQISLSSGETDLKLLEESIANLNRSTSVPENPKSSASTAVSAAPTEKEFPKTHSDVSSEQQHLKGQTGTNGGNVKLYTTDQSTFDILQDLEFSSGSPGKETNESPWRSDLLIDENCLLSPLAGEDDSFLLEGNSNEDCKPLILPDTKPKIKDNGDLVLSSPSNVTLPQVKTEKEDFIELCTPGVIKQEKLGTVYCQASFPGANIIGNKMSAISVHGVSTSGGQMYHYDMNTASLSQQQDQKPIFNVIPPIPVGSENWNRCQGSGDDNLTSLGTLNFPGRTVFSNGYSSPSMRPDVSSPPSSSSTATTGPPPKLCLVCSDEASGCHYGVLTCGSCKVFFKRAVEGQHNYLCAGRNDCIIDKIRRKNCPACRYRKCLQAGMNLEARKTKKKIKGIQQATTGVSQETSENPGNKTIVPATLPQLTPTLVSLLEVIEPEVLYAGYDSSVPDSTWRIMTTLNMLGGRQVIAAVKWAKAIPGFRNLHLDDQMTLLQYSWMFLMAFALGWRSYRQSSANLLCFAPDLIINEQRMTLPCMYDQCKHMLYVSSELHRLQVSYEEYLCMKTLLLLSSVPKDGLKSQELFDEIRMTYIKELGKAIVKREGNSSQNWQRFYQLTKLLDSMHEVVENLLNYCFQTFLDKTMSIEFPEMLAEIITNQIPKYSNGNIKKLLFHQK
Description: Human lung tissue was deep frozen immediately after resection and stored in liquid nitrogen. Frozen tissue was pulverized and homogenized in three aliquots buffer solution A with an Ultra Turrax mixer (Janke and Kunkel, Staufen, Germany) in an ice bath. […] The cytosol was stored in aliquots at -70°C.
The receptor binding experiments were performed according to the procedure described earlier [1] based on [7-9].
The assay for total binding (Bt in [mol/L]) was carried out accordingly, but the unlabelled glucocorticoid was replaced by buffer solution G. To determine the total [^3H]-glucocorticoid concentration (T), 20 μL of the mixture were used for scintillation counting. […]
The Zt-values were plotted against time t and a linear regression was performed. The slope of the straight line (kAss = k1) and the coefficient of correlation r were calculated based on a minimum of four data points. […]
The Bs,t-values were plotted semi-logarithmical against time t and a linear regression was performed. The slope of the straight line (kDiss = k-1) and the coefficient of correlation r were calculated based on a minimum of six data points.
Equilibrium dissociation constant (KD) was calculated for each glucocorticoid based on association and dissociation rate constants:

[3] = Adsorption of glucocorticoids to human lung tissue; assay type: in vitro ADME; conditions: 37°C; for tissue binding (concentration in human lung tissue) after adsorption: 60 min incubation, 0.3 μg/mL glucocorticoid in buffer, before incubation in plasma
Description: (§2) Lung tissue was washed in Krebs-Ringer-HEPES buffer (pH 7.4) and sliced into pieces of 1 mm^3. For each binding experiment approximately 0.5 g of lung tissue was used. Adsorption of glucocorticoids (0.3 μg/mL) to human lung tissue was determined as described earlier. Briefly, lung tissue pieces were suspended under gentle shaking for 1 h at 37°C in 20 ml Krebs-Ringer-HEPES buffer containing 0.3 μg/ml of the glucocorticoid. 2.0 mL samples were taken and stored at -20°C until analysis. The volume withdrawn was replaced with fresh buffer of 37°C. Only glass lab ware was used for these experiments to avoid any non-specific binding effects of the highly lipophilic compounds to plastic material. For control, blank samples with glucocorticoid-containing buffer, but no tissue, were incubated under the same experimental conditions (1 h at 37°C, in Krebs-Ringer-HEPES buffer) and analyzed for non-specific adsorption of the glucocorticoids to the glass tubes.
as §1
(§3) The HPLC system was a Waters HPLC (Milford, MA) consisting of a 1525 binary pump, an 717plus autosampler and 2487 dual wavelength absorbance detector set at the detection wavelength of 254 nm. Data collection and integration were accomplished using Breeze™ software version 3.2. Analysis was performed on a Symmetry C18 column (150 × 4.6 mm I.D., 5 μm particle size, Waters, MA). Typically, 20 μL of sample were injected and separated at a flow rate of 1 mL/min. Gradient elution was performed using water (containing 0.2 % (v/v) acetic acid) and ACN, starting at 60:40 (v/v) water/ACN increasing linearly to 29:71 (v/v) water/ACN by 30 min. The assay was accurate and reproducible. The lower limit of quantitation was 10 ng/mL for all glucocorticoids except ciclesonide (20 ng/mL).

[4] = Control experiment for non-specific adsorption to glass incubation vials (buffer without tissue); assay type: physicochemical; conditions: 480 min at 37°C, Krebs-Ringer-HEPES buffer; for non-specific binding to glass incubation vials: no tissue
Description: as §2, with “For control, blank samples with glucocorticoid-containing buffer, but no tissue, were incubated under the same experimental conditions (1 h at 37°C, in Krebs-Ringer-HEPES buffer) and analyzed for non-specific adsorption of the glucocorticoids to the glass tubes.” left out
as §1, §3

[5] = Desorption of glucocorticoids from human lung tissue into human plasma; assay type: in vitro ADME; conditions: for concentration remaining in human lung tissue after desorption: after 60 min equilibration with human plasma at 37°C; for retention / tissue binding in human lung tissue (in words): in vitro
Description: Desorption of glucocorticoids to human lung tissue was determined as described earlier. Briefly, lung tissue (1.0 g) was saturated with glucocorticoids for 1 h at 37°C by shaking in 40 mL Krebs-Ringer-HEPES buffer containing 0.3 μg/mL of the respective glucocorticoid. After incubation tissue was washed with 2 mL buffer and transferred into 10.0 mL human plasma (37°C). Again, only glass lab ware was used for these experiments to exclude any non-specific binding effects of the highly lipophilic compounds to plastic material. Samples of 1.0 mL were taken at defined time points. The volume was replaced with fresh plasma at 37°C. Samples were stored at -20°C until further analysis.
as §1, §3

[6] = Binding to human nasal tissue; assay type: in vitro ADME; conditions: single experiment, tissue pooled from 3 donors; data not shown
[7] = biological target: T1, human lung glucocorticoid receptor; conditions: from previous experiments of the authors; ref [3]; cited from earlier work
[8] = system: glucocorticoid receptor (rat receptor data); set-up: method as in PMID 14718604; conditions: reference dexamethasone = 100, ref [16]; cited from earlier work

Compound	tissue binding (concentration in human lung tissue) after adsorption [3] [ng/mg]	concentration remaining in human lung tissue after desorption [5] [ng/mg]	retention / tissue binding in human lung tissue (in words) [5]	non-specific binding to glass incubation vials [4]	further results
CCC(=O)OCC(=O)[C@@]1(OC(=O)CC)[C@@H](C)C[C@H]2[C@@H]3CCC4=CC(=O)C=C[C@]4(C)[C@@]3(Cl)[C@@H](O)C[C@@]21C [BDP, beclomethasone-17, 21-dipropionate]					concentration in the supernatant in the absence of dichlorvos (control of enzymatic integrity) ([1]; human lung tissue, absence of dichlorvos, data not shown): rapidly decreased
C[C@@H]1C[C@H]2[C@@H]3CCC4=CC(=O)C=C[C@]4(C)[C@@]3(F)[C@@H](O)C[C@]2(C)[C@@]1(O)C(=O)CO [Dexa, dexamethasone]					association rate constant k1 ([2]; [3H]-glucocorticoid): 10.53 ± 0.35 × 10^5 (L/[mol/min]); dissociation rate constant k-1 [2]: 94.67 ± 5.43 × 10^-4 [1/min]
C[C@@H]1C[C@H]2[C@@H]3CCC4=CC(=O)C=C[C@]4(C)[C@@]3(Cl)[C@@H](O)C[C@]2(C)[C@@]1(OC(=O)c1ccco1)C(=O)CCl [MF, mometasone furoate]	3.65 ± 0.15	0.57 ± 0.15	Lowest tissue binding	did not display non-specific binding to glass	chemical stability in buffer ([4]; degradation product 9,11-epoxy MF): chemical instability
C[C@]12C=CC(=O)C=C1CC[C@@H]1[C@@H]2[C@@H](O)C[C@@]2(C)[C@H]1C[C@H]1O[C@@H](C3CCCCC3)O[C@]12C(=O)CO [des-Cicle, desisobutyryl-ciclesonide]					RRA (relative receptor affinity) [8]: 1212

Further lines, with some results ahead:

tissue binding (concentration in human lung tissue) after adsorption [3] [ng/mg]	concentration remaining in human lung tissue after desorption [5] [ng/mg]	retention / tissue binding in human lung tissue (in words) [5]	Compound	non-specific binding to glass incubation vials [4]	further results
4.18 ± 0.16	1.21 ± 0.23	pronounced retention	C[C@@H]1C[C@H]2[C@@H]3C[C@H](F)C4=CC(=O)C=C[C@]4(C)[C@@]3(F)[C@@H](O)C[C@]2(C)[C@@]1(OC(=O)c1ccco1)C(=O)SCF [FF, fluticasone furoate]	no non-specific binding; also recorded: No adsorption	stability in human lung tissue (in words) ([1]; 0.3 μg/mL, 24 hours, presence and absence of dichlorvos, HPLC of supernatant): no indication of instability or chemical modification; also recorded: non-specific esterase-catalyzed hydrolysis of FF did not occur; also recorded: no degradation or metabolism; time to complete adsorption to human lung tissue ([3]; in vitro, data not shown): about 20 min; binding to human nasal tissue compared with FP [6]: greater binding
3.39 ± 0.06	1.55 ± 0.13	pronounced retention	CCC(=O)O[C@]1(C(=O)SCF)[C@H](C)C[C@H]2[C@@H]3C[C@H](F)C4=CC(=O)C=C[C@]4(C)[C@@]3(F)[C@@H](O)C[C@@]21C [FP, fluticasone propionate]	no non-specific binding; also recorded: No adsorption	association rate constant k1 [7]: 21.17 ± 0.56 × 10^5 (L/[mol/min]); dissociation rate constant k-1 [7]: 10.73 ± 0.65 × 10^-4 [1/min]
